Measurements as given in patent US8986696B2, “Trans-capsular administration of p38 map kinase inhibitors into orthopedic joints” (DePuy Mitek, Inc., priority 2007, dated 2015).
Where “and” joins values, the source holds several entries; their conditions need not be identical. Equal values may be shown once.

Assays:
[1] = test system: rabbit anterior cruciate ligament transection (ACLT) model of osteoarthritis; assay: ACLT model, preventative dosing regimen (Example IX); assay type: in vivo; parameters: key to Trochlear Groove Erosion of Cartilage, mean score / Tibial Plateau # of Osteophytes (Medial), mean score: gross grading scale; higher score = more joint damage; key to All Condylar Effects (0-18), mean: score 0-18; higher = more joint damage
Procedure: (§1) 130 Female New Zealand white rabbits underwent ACLT on the right knee. Intra-articular injections were administered to the operated knee once per week for five weeks beginning either one or six weeks after the ACLT. All animals were euthanized one week after the administration of the fifth injection. Gross observations were made on the knee joints according to a predetermined grading scale. The stifle joints were removed. Samples were preserved in 10% neutral buffered formalin. The stifle joints were photographed using high-resolution photography.
The ACLT was performed according to the ACLT model discussed above. Animals were group housed in pens on the floor and left untreated for one week to allow healing of the surgical site. Then, once weekly for five weeks, intra-articular injections were administered. One week following the last injection, the animals were sacrificed. The total in-life portion of the preventative dosing regimen was […]. Previous studies have confirmed that the six week time-point allows sufficient degeneration changes to occur.
(§2) The study design consisted of an n=10 per group. A total of 160 μl was injected at each administration.
(§3) At the time of sacrifice the following parameters were evaluated grossly (the scale follows in parenthesis):
Each parameter was given a score. The combination of all parameters gave a Total Score (0-52). Additionally, combinations of the three subsets of data yielded scores for All Trochlear Groove Effects (0-10), All Condylar Effects (0-18) and All Tibial Plateau Effects (0-24). […] […] The grades that compose this parameter are trochlear groove thickness and erosion, all the grades in All Condylar Effects, and all grades listed under Tibial Plateau. A higher score indicates more damage to the joint. A lower score indicates less damage or more cartilage preservation in the joint. Individual results for each parameter assessed were tabulated.

[2] = test system: rabbit anterior cruciate ligament transection (ACLT) model of osteoarthritis; assay: ACLT model, therapeutic dosing regimen (Example IX); assay type: in vivo; details: for Trochlear Groove Erosion of Cartilage / Tibial Plateau Presence of Clefts (Lateral) / Tibial Plateau Presence of Clefts (Medial) / Trochlear Groove Thickening / Femoral Condyle Presence of Clefts / Femoral Condyle % Surface Area Erosion (Lateral) / Femoral Condyle % Surface Area Erosion (Medial) / Tibial Plateau % Surface Area Erosion (Lateral) / Tibial Plateau % Surface Area Erosion (Medial) / Tibial Plateau # of Osteophytes (Lateral) / Tibial Plateau # of Osteophytes (Medial) / Trochlear Groove # of Osteophytes / Trochlear Groove Osteophyte Size / Femoral Condyle Depth of Erosion (Lateral) / Femoral Condyle Depth of Erosion (Medial) / Tibial Plateau Depth of Erosion (Lateral) / Tibial Plateau Depth of Erosion (Medial) / Combination Scores: All Trochlear Groove Effects / Combination Scores: All Condylar Effects / Combination Scores: All Tibial Plateau Effects / Combination Scores: All Cartilage Effects / Combination Scores: Total Score: Therapeutic Dosing Regimen; for Trochlear Groove Erosion of Cartilage / Tibial Plateau Presence of Clefts (Lateral) / Tibial Plateau Presence of Clefts (Medial) / Trochlear Groove Thickening / Femoral Condyle Presence of Clefts / Femoral Condyle % Surface Area Erosion (Lateral) / Femoral Condyle % Surface Area Erosion (Medial) / Tibial Plateau % Surface Area Erosion (Lateral) / Tibial Plateau % Surface Area Erosion (Medial) / Tibial Plateau # of Osteophytes (Lateral) / Tibial Plateau # of Osteophytes (Medial) / Trochlear Groove # of Osteophytes / Trochlear Groove Osteophyte Size / Femoral Condyle Depth of Erosion (Lateral) / Femoral Condyle Depth of Erosion (Medial) / Tibial Plateau Depth of Erosion (Lateral) / Tibial Plateau Depth of Erosion (Medial): mean gross score; for Trochlear Groove Erosion of Cartilage: 0 = 0, 1 < 25%, 2 = 25-50%, 3 > 50%; for Tibial Plateau Presence of Clefts (Lateral) / Tibial Plateau Presence of Clefts (Medial): 0 = Absent, 1 = Present; for Trochlear Groove Thickening: 0 = Normal, 1 = Thickened Areas; for Femoral Condyle Presence of Clefts: 0 = absent, 1 = unicondylar, 2 = both condyles; for Femoral Condyle % Surface Area Erosion (Lateral) / Femoral Condyle % Surface Area Erosion (Medial) / Tibial Plateau % Surface Area Erosion (Lateral) / Tibial Plateau % Surface Area Erosion (Medial): scale 0-5; for Tibial Plateau # of Osteophytes (Lateral) / Tibial Plateau # of Osteophytes (Medial) / Trochlear Groove # of Osteophytes / Trochlear Groove Osteophyte Size: scale 0 = 0; for Tibial Plateau # of Osteophytes (Lateral) / Tibial Plateau # of Osteophytes (Medial) / Trochlear Groove # of Osteophytes: 1 = 1, 2 = 2, 3 ≧ 2; for Trochlear Groove Osteophyte Size: 1 ≦ 1 mm, 2 = 1-2 mm, 3 > 2 mm; for Femoral Condyle Depth of Erosion (Lateral) / Femoral Condyle Depth of Erosion (Medial) / Tibial Plateau Depth of Erosion (Lateral) / Tibial Plateau Depth of Erosion (Medial): scale 0 = no damage to 3 = severe; for Combination Scores: All Trochlear Groove Effects / Combination Scores: All Condylar Effects / Combination Scores: All Tibial Plateau Effects / Combination Scores: All Cartilage Effects / Combination Scores: Total Score: mean; for Combination Scores: All Trochlear Groove Effects: 0-10, 10 = max damage; for Combination Scores: All Condylar Effects: 0-18, 18 = max damage; for Combination Scores: All Tibial Plateau Effects: 0-24, 24 = max damage; for Combination Scores: All Cartilage Effects: 0-40, 40 = max damage; for Combination Scores: Total Score: 0-52, 52 = max damage
Procedure: as §1
The ACLT was performed according to the ACLT model discussed above. Animals were group housed in pens on the floor and left untreated for six weeks to allow osteoarthritis to develop. Then, once weekly for five weeks, intra-articular injections were administered. One week following the last injection, the animals were sacrificed. The total in-life portion of this regimen was eleven weeks post-ACLT.
as §2, §3
Each parameter was given a score. The combination of all parameters gave a Total Score (0-52). Additionally, combinations of the three subsets of data yielded scores for All Trochlear Groove Effects (0-10), All Condylar Effects (0-18) and All Tibial Plateau Effects (0-24). Lastly, an […] was obtained. The score for […] ranges from 0 to 40. The grades that compose this parameter are trochlear groove thickness and erosion, all the grades in All Condylar Effects, and all grades listed under Tibial Plateau. A higher score indicates more damage to the joint. A lower score indicates less damage or more cartilage preservation in the joint. Individual results for each parameter assessed were tabulated.

In the case of `CC(=O)N1CCN(c2c(-c3ccncc3)c(-c3ccc(F)cc3)c(C#N)n2C)CC1` [JNJ 17089540 (RWJ 669307)], the “All Cartilage Effects (0-40), mean” value [1] is reported as 5.8+2.0 and 5.8, the “All Condylar Effects (0-18), mean” value [1] is reported as 2.7 ± 1.3 and 2.7 and the “All Tibial Plateau Effects (0-24), mean” value [1] is reported as 4.1. For the same compound, the “All Trochlear Groove Effects (0-10), mean” value [1] was 6.2, the “Femoral Condyle % Surface Area Erosion (Lateral), mean score” value [1] was 1.2 and the “Femoral Condyle % Surface Area Erosion (Medial), mean score” value [1] was 0.3+0.3 and 0.3. The “Femoral Condyle Depth of Erosion (Lateral), mean score” value [1] was 0.2+0.2 and 0.2, the “Femoral Condyle Depth of Erosion (Medial), mean score” value [1] was 0.2+0.2 and 0.2 and the “Femoral Condyle Presence of Clefts, mean score” value [1] was 0. The “Tibial Plateau # of Osteophytes (Lateral), mean score” value [1] was 0.4, the “Tibial Plateau # of Osteophytes (Medial), mean score” value [1] was 1.4 and the “Tibial Plateau % Surface Area Erosion (Lateral), mean score” value [1] was 1.3. The “Tibial Plateau % Surface Area Erosion (Medial), mean score” value [1] was 0, the “Tibial Plateau Depth of Erosion (Lateral), mean score” value [1] was 0.8 and the “Tibial Plateau Depth of Erosion (Medial), mean score” value [1] was 0. For the same compound, the “Tibial Plateau Presence of Clefts (Lateral), mean score” value [1] was 0, the “Tibial Plateau Presence of Clefts (Medial), mean score” value [1] was 0 and the “Total Score (0-52), mean” value [1] was 12.9 ± 2.3 and 12.9. For the same compound, the “Trochlear Groove # of Osteophytes, mean score” value [1] was 2.6, the “Trochlear Groove Erosion of Cartilage, mean score” value [1] was 1.0 and the “Trochlear Groove Osteophyte Size, mean score” value [1] was 2.7. The “Trochlear Groove Thickening, mean score” value [1] was 0, the “Trochlear Groove Erosion of Cartilage” value [2] was 1.6 and the “Tibial Plateau Presence of Clefts (Lateral)” value [2] was 0. The “Tibial Plateau Presence of Clefts (Medial)” value [2] was 0, the “Trochlear Groove Thickening” value [2] was 0 and the “Femoral Condyle Presence of Clefts” value [2] was 0. For the same compound, the “Femoral Condyle % Surface Area Erosion (Lateral)” value [2] was 1.1, the “Femoral Condyle % Surface Area Erosion (Medial)” value [2] was 0.4 and the “Tibial Plateau % Surface Area Erosion (Lateral)” value [2] was 1.4. The “Tibial Plateau % Surface Area Erosion (Medial)” value [2] was 0, the “Tibial Plateau # of Osteophytes (Lateral)” value [2] was 0.7 and the “Tibial Plateau # of Osteophytes (Medial)” value [2] was 1.5. The “Trochlear Groove # of Osteophytes” value [2] was 3.0, the “Trochlear Groove Osteophyte Size” value [2] was 3.0 and the “Femoral Condyle Depth of Erosion (Lateral)” value [2] was 1.1. For the same compound, the “Femoral Condyle Depth of Erosion (Medial)” value [2] was 0.2, the “Tibial Plateau Depth of Erosion (Lateral)” value [2] was 1.2 and the “Tibial Plateau Depth of Erosion (Medial)” value [2] was 0. For the same compound, the “Combination Scores: All Trochlear Groove Effects” value [2] was 7.6, the “Combination Scores: All Condylar Effects” value [2] was 2.8 and the “Combination Scores: All Tibial Plateau Effects” value [2] was 4.8. The “Combination Scores: All Cartilage Effects” value [2] was 7.0, the “Combination Scores: Total Score” value [2] was 15.2 and the “All Cartilage Effects, mean score” value ([2]; therapeutic dosing regimen) was 7.0+1.0. The “all condylar effects, mean score” value ([2]; therapeutic dosing regimen) was 2.8 ± 0.6, the “depth of the erosion on the lateral femoral condyle, mean score” value ([2]; therapeutic dosing regimen) was 1.1 ± 0.4 and the “depth of the erosion on the medial femoral condyle, mean score” value ([2]; therapeutic dosing regimen) was 0.2 ± 0.1. The “percent surface area erosion of the lateral femoral condyle, mean score” value ([2]; therapeutic dosing regimen) was 1.1 ± 0.4, the “percent surface area erosion of the medial femoral condyle, mean score” value ([2]; therapeutic dosing regimen) was 0.4 ± 0.2 and the “total score, mean” value ([2]; therapeutic dosing regimen) was 15.2 ± 1.2.

`CC(C(=O)O)c1ccc(C(=O)c2cccs2)cc1` (centres unmarked) [Suprofen, reference compound] was tested, and the “All Cartilage Effects (0-40), mean” value [1] was 6.8, the “All Condylar Effects (0-18), mean” value [1] was 4.1 and the “All Tibial Plateau Effects (0-24), mean” value [1] was 3.1. The “All Trochlear Groove Effects (0-10), mean” value [1] was 7.1, the “Femoral Condyle % Surface Area Erosion (Lateral), mean score” value [1] was 2.1 and the “Femoral Condyle % Surface Area Erosion (Medial), mean score” value [1] was 0.1+0.1 and 0.1. For the same compound, the “Femoral Condyle Depth of Erosion (Lateral), mean score” value [1] was 1.6, the “Femoral Condyle Depth of Erosion (Medial), mean score” value [1] was 0.3+0.3 and 0.3 and the “Femoral Condyle Presence of Clefts, mean score” value [1] was 0. The “Tibial Plateau # of Osteophytes (Lateral), mean score” value [1] was 0.5, the “Tibial Plateau # of Osteophytes (Medial), mean score” value [1] was 1.1 and the “Tibial Plateau % Surface Area Erosion (Lateral), mean score” value [1] was 0.9. The “Tibial Plateau % Surface Area Erosion (Medial), mean score” value [1] was 0, the “Tibial Plateau Depth of Erosion (Lateral), mean score” value [1] was 0.5 and the “Tibial Plateau Depth of Erosion (Medial), mean score” value [1] was 0. For the same compound, the “Tibial Plateau Presence of Clefts (Lateral), mean score” value [1] was 0, the “Tibial Plateau Presence of Clefts (Medial), mean score” value [1] was 0 and the “Total Score (0-52), mean” value [1] was 14.1. The “Trochlear Groove # of Osteophytes, mean score” value [1] was 2.8, the “Trochlear Groove Erosion of Cartilage, mean score” value [1] was 1.5 and the “Trochlear Groove Osteophyte Size, mean score” value [1] was 2.8. The “Trochlear Groove Thickening, mean score” value [1] was 0, the “Trochlear Groove Erosion of Cartilage” value [2] was 1.9 and the “Tibial Plateau Presence of Clefts (Lateral)” value [2] was 0. The “Tibial Plateau Presence of Clefts (Medial)” value [2] was 0, the “Trochlear Groove Thickening” value [2] was 0 and the “Femoral Condyle Presence of Clefts” value [2] was 0. For the same compound, the “Femoral Condyle % Surface Area Erosion (Lateral)” value [2] was 1.3, the “Femoral Condyle % Surface Area Erosion (Medial)” value [2] was 0.3 and the “Tibial Plateau % Surface Area Erosion (Lateral)” value [2] was 1.6. For the same compound, the “Tibial Plateau % Surface Area Erosion (Medial)” value [2] was 0, the “Tibial Plateau # of Osteophytes (Lateral)” value [2] was 0.8 and the “Tibial Plateau # of Osteophytes (Medial)” value [2] was 1.6. For the same compound, the “Trochlear Groove # of Osteophytes” value [2] was 3.0, the “Trochlear Groove Osteophyte Size” value [2] was 3.0 and the “Femoral Condyle Depth of Erosion (Lateral)” value [2] was 1.3. For the same compound, the “Femoral Condyle Depth of Erosion (Medial)” value [2] was 0.2, the “Tibial Plateau Depth of Erosion (Lateral)” value [2] was 1.4 and the “Tibial Plateau Depth of Erosion (Medial)” value [2] was 0. For the same compound, the “Combination Scores: All Trochlear Groove Effects” value [2] was 7.9, the “Combination Scores: All Condylar Effects” value [2] was 3.0 and the “Combination Scores: All Tibial Plateau Effects” value [2] was 5.4. For the same compound, the “Combination Scores: All Cartilage Effects” value [2] was 7.9, the “Combination Scores: Total Score” value [2] was 16.3 and the “All Cartilage Effects, mean score” value ([2]; therapeutic dosing regimen) was 7.9+1.5. The “all condylar effects, mean score” value ([2]; therapeutic dosing regimen) was 3.0 ± 1.0, the “depth of the erosion on the lateral femoral condyle, mean score” value ([2]; therapeutic dosing regimen) was 1.3 ± 0.4 and the “depth of the erosion on the medial femoral condyle, mean score” value ([2]; therapeutic dosing regimen) was 0.2 ± 0.1. The “percent surface area erosion of the lateral femoral condyle, mean score” value ([2]; therapeutic dosing regimen) was 1.3 ± 0.4 and the “percent surface area erosion of the medial femoral condyle, mean score” value ([2]; therapeutic dosing regimen) was 0.3 ± 0.2.
